# Source: patent US5952298A, “Cryptophycins” (priority 1995, dated 1999)
# Like-named read-outs stand apart in the source and are kept apart here.
# Columns and labels:
# [1] = test system: LoVo (human colon carcinoma); assay: Cytotoxicity against LoVo cell line; type: cell-based
# [2] = test system: SKOV3 (human ovarian carcinoma); assay: Cytotoxicity against SKOV3 cell line (Table 2); type: cell-based
# [3] = test system: murine leukemia (L1210 or P388), murine solid tumor, human solid tumor and low malignancy fibroblast (LML) cells
# [4] = test system: KB (human nasopharyngeal carcinoma); assay: Cytotoxicity against KB cell line; type: cell-based
# [5] = test system: pancreatic ductal adenocarcinoma #03 (Panc 03, P03); settings: SC P03
# [6] = test system: colon adenocarcinoma #38 (Colon 38, C38); settings: for % Body Wt. Loss at Nadir / Cures / T/C: SC C38; for Log Kill: mouse, in vivo
# [7] = test system: murine and human tumors implanted in mice
# Procedure: Gross log kill is defmed as T-C/3.2 Td where T is the median time in days for the tumors of the treated group to reach 750 mg, C is the median time in days for the tumors of the control group to reach 750 mg, and Td is the tumor volume doubling time. […] An activity rating of +++ to ++++, which is indicative of clinical activity, is needed to effect partial or complete regression of 100-300 mg size masses of most transplanted solid tumors of mice.
# [8] = test system: colon adenocarcinoma #51 (Colon 51); assay: In vivo activity, SC Colon 51 tumor; settings: Exp 1900, 9 IV inj., 67.5 mg/kg TD
# [9] = test system: Mam 16/C (taxol-sensitive mammary #16/C); assay: In vivo activity, SC Mam 16/C tumor; settings: Exp 1885, 7 IV inj., 21.3 mg/kg TD
# [10] = Exp 1843, 4 IV inj., 28/5 mg/kg TD
# [11] = Exp 1769, 15 IV inj., 45 mg/kg TD
# [12] = Exp 1887B, 6 IV inj., 30 mg/kg TD
# [13] = Exp 1825, 11 IV inj., 106 mg/kg TD
# [14] = Exp 1878, 9 IV inj., 82 mg/kg TD
# [15] = Exp 1813, 9 IV inj., 27 mg/kg TD
# [16] = Exp 1843, 7 IV inj., 23 mg/kg TD
smiles,measurement,setting,value
COc1ccc(C[C@H]2NC(=O)/C=C/C[C@@H]([C@H](C)[C@H]3O[C@@H]3c3ccccc3)OC(=O)[C@H](CC(C)C)OC(=O)[C@H](C)CNC2=O)cc1 [Cryptophycin 2],LoVo IC50,[1]; Table 1,0.0002 ng/mL
same,LoVo IC50,[1]; Table 2,0.021 ng/mL
same,SKOV3 IC50,[2],0.18 ng/mL
same,"Differential in Zone Units, Corbett Assay",[3]; 25 μg/disk,> 400 zone units
same,"Type of Cytotoxicity, Corbett Assay",[3]; 25 μg/disk,E/T
COc1ccc(C[C@H]2NC(=O)/C=C/C[C@@H]([C@H](C)/C=C/c3ccccc3)OC(=O)[C@H](CC(C)C)OC(=O)[C@H](C)CNC2=O)cc1Cl [Cryptophycin 3],KB IC50,[4]; Table 1,0.3 ng/mL
same,LoVo IC50,[1]; Table 1,0.5 ng/mL
same,LoVo IC50,[1]; Table 2,0.6 ng/mL
same,SKOV3 IC50,[2],2.8 ng/mL
same,"Differential in Zone Units, Corbett Assay",[3]; 25 μg/disk,> 400 zone units
same,"Type of Cytotoxicity, Corbett Assay",[3]; 25 μg/disk,E/T
same,% Body Wt. Loss at Nadir,[5]; [10],-9%
same,Cures,[5]; [10],0/5
same,Log Kill,[5]; [10],< 1
same,T/C,[5]; [10],54%
COc1ccc(C[C@H]2NC(=O)/C=C/C[C@@H]([C@H](C)/C=C/c3ccccc3)OC(=O)[C@H](CC(C)C)OC(=O)[C@H](C)CNC2=O)cc1 [Cryptophycin 4],KB IC50,[4]; Table 1,1.3 ng/mL
same,LoVo IC50,[1]; Table 2,2.5 ng/mL
same,SKOV3 IC50,[2],21 ng/mL
same,"Differential in Zone Units, Corbett Assay",[3]; 20 μg/disk,> 400 zone units
same,"Type of Cytotoxicity, Corbett Assay",[3]; 20 μg/disk,E/T
COC(=O)[C@H](C)CNC(=O)[C@@H](Cc1ccc(OC)c(Cl)c1)NC(=O)/C=C/C[C@H](OC(=O)[C@@H](O)CC(C)C)[C@H](C)[C@H]1O[C@@H]1c1ccccc1 [Cryptophycin 5],KB IC50,[4]; Table 1,0.02 ng/mL
same,KB IC50,[4]; Table 2,12 ng/mL
same,SKOV3 IC50,[2],7.4 ng/mL
COc1ccc(C[C@@H](NC(=O)/C=C/C[C@@H]2O[C@@H](c3ccccc3)[C@H](O)[C@H]2C)C(=O)O)cc1Cl [Cryptophycin 7],KB IC50,[4]; Table 1,≥ 750 ng/mL
same,LoVo IC50,[1]; Table 1,≥ 480 ng/mL
COc1ccc(C[C@H]2NC(=O)/C=C/C[C@@H]([C@H](C)[C@@H](O)[C@@H](Cl)c3ccccc3)OC(=O)[C@H](CC(C)C)OC(=O)[C@H](C)CNC2=O)cc1Cl [Cryptophycin 8],KB IC50,[4]; Table 1,0.0002 ng/mL
same,KB IC50,[4]; Table 2,0.01 ng/mL
same,LoVo IC50,[1]; Table 1,0.01 ng/mL
same,LoVo IC50,[1]; Table 2,0.0022 ng/mL
same,SKOV3 IC50,[2],0.15 ng/mL
same,"Differential in Zone Units, Corbett Assay",[3]; 30 μg/disk,> 500 zone units
same,"Type of Cytotoxicity, Corbett Assay",[3]; 30 μg/disk,E/T
same,% Body Wt. Loss at Nadir,[6]; [11],-2%
same,Cures,[6]; [11],0/5
same,T/C,[6]; [11],> 100%
same,% Body Wt. Loss at Nadir,[6]; [12],-2%
same,Cures,[6]; [12],1/5
same,T/C,[6]; [12],0%
same,Log Kill,[6]; 30 mg/kg,2.8
same,Log Kill,[6]; 45 mg/kg,None
same,% Body Wt. Loss at Nadir,[5]; [13],-6%
same,Cures,[5]; [13],0/5
same,Log Kill,[5]; [13],4.6
same,T/C,[5]; [13],4%
same,cures (in words),[7],some cures
same,gross log kill activity rating,[7],+++ to ++++
same,in vivo activity (in words),[7],active against a broad spectrum of tumors implanted in mice
same,cause of lethal toxicity observed during testing,[7]; mice,leucopenia
same,tumor burden T/C (mean tumor burden in treated animals/mean tumor burden untreated animals),[7]; text summary over the tumors named in the sentence,< 10%
same,% Body Wt. Loss at Nadir,[8],-1%
same,Cures,[8],0/5
same,Log Kill,[8],1.8
same,T/C,[8],7%
same,% Body Wt. Loss at Nadir,[9],-4.5%
same,Cures,[9],0/5
same,Log Kill,[9],2.5
same,T/C,[9],6%
COc1ccc(C[C@H]2NC(=O)/C=C/C[C@@H]([C@H](C)[C@@H](O)[C@@H](OC)c3ccccc3)OC(=O)[C@H](CC(C)C)OC(=O)[C@H](C)CNC2=O)cc1Cl [Cryptophycin 9],KB IC50,[4]; Table 1,15 ng/mL
COc1ccc(C[C@@H](NC(=O)/C=C/C[C@@H]2O[C@@H](c3ccccc3)[C@H](O)[C@H]2C)C(=O)NC[C@@H](C)C(=O)O)cc1Cl [Cryptophycin 12],KB IC50,[4]; Table 1,≥ 100 ng/mL
same,KB IC50,[4]; Table 2,18 ng/mL
same,LoVo IC50,[1]; Table 1,≥ 100 ng/mL
COc1ccc(C[C@@H](NC(=O)/C=C/C[C@H](O)[C@H](C)/C=C/c2ccccc2)C(=O)NC[C@@H](C)C(=O)O)cc1Cl [Cryptophycin 14],KB IC50,[4]; Table 1,1.8 ng/mL
CC(C)C[C@@H]1OC(=O)[C@H](C)CNC(=O)[C@@H](Cc2ccc(O)c(Cl)c2)NC(=O)/C=C/C[C@@H]([C@H](C)[C@H]2O[C@@H]2c2ccccc2)OC1=O [Cryptophycin 16],KB IC50,[4]; Table 2,0.08 ng/mL
same,SKOV3 IC50,[2],0.64 ng/mL
same,% Body Wt. Loss at Nadir,[5]; [14],-1%
same,Cures,[5]; [14],0/5
same,Log Kill,[5]; [14],None
same,T/C,[5]; [14],89%
CC(C)C[C@@H]1OC(=O)[C@H](C)CNC(=O)[C@@H](Cc2ccc(O)c(Cl)c2)NC(=O)/C=C/C[C@@H]([C@H](C)/C=C/c2ccccc2)OC1=O [Cryptophycin 17],KB IC50,[4]; Table 2,4.7 ng/mL
same,LoVo IC50,[1]; Table 2,5.9 ng/mL
same,SKOV3 IC50,[2],11 ng/mL
CC[C@H](C)[C@@H]1OC(=O)[C@H](C)CNC(=O)[C@@H](Cc2ccc(OC)c(Cl)c2)NC(=O)/C=C/C[C@@H]([C@H](C)/C=C/c2ccccc2)OC1=O [Cryptophycin 18],LoVo IC50,[1]; Table 2,4.5 ng/mL
same,SKOV3 IC50,[2],23 ng/mL
COc1ccc(C[C@H]2NC(=O)/C=C/C[C@@H]([C@H](C)/C=C/c3ccccc3)OC(=O)[C@H](C(C)C)OC(=O)[C@H](C)CNC2=O)cc1Cl [Cryptophycin 19],KB IC50,[4]; Table 2,9.8 ng/mL
same,SKOV3 IC50,[2],41 ng/mL
COc1ccc(C[C@H]2NC(=O)/C=C/C[C@@H]([C@H](C)[C@H]3O[C@@H]3c3ccccc3)OC(=O)[C@H](CC(C)C)OC(=O)CCNC2=O)cc1Cl [Cryptophycin 21],LoVo IC50,[1]; Table 2,0.0003 ng/mL
same,SKOV3 IC50,[2],0.029 ng/mL
same,% Body Wt. Loss at Nadir,[5]; [15],-11%
same,Cures,[5]; [15],0/5
same,Log Kill,[5]; [15],None
same,T/C,[5]; [15],61%
same,dead (animals),[5]; [15],1/5
COc1ccc(C[C@H]2NC(=O)/C=C/C[C@@H]([C@H](C)[C@H]3O[C@@H]3c3ccccc3)OC(=O)[C@H](CC(C)C)OC(=O)CCNC2=O)cc1 [Cryptophycin 24],KB IC50,[4]; Table 2,0.12 ng/mL
same,LoVo IC50,[1]; Table 2,0.095 ng/mL
same,SKOV3 IC50,[2],0.3 ng/mL
COc1ccc(C[C@H]2NC(=O)C[C@@H](C[C@H](O)[C@H](C)/C=C/c3ccccc3)OC(=O)[C@H](CC(C)C)OC(=O)[C@H](C)CNC2=O)cc1Cl [Cryptophycin 26],KB IC50,[4]; Table 2,19 ng/mL
same,LoVo IC50,[1]; Table 2,9.8 ng/mL
same,SKOV3 IC50,[2],95 ng/mL
COc1ccc(C[C@H]2NC(=O)/C=C/C[C@@H](C/C=C/c3ccccc3)OC(=O)[C@H](CC(C)C)OC(=O)[C@H](C)CNC2=O)cc1Cl [Cryptophycin 28],KB IC50,[4]; Table 2,1.5 ng/mL
same,LoVo IC50,[1]; Table 2,0.75 ng/mL
same,SKOV3 IC50,[2],6.1 ng/mL
COc1ccc(C[C@H]2NC(=O)/C=C/C[C@@H]([C@H](C)/C=C/c3ccccc3)OC(=O)[C@H](CC(C)C)OC(=O)CCNC2=O)cc1Cl [Cryptophycin 29],LoVo IC50,[1]; Table 2,0.49 ng/mL
same,SKOV3 IC50,[2],3.4 ng/mL
COc1ccc(C[C@H]2NC(=O)C[C@H](O)C[C@@H]([C@H](C)/C=C/c3ccccc3)OC(=O)[C@H](CC(C)C)OC(=O)[C@H](C)CNC2=O)cc1Cl [Cryptophycin 30],KB IC50,[4]; Table 2,11 ng/mL
COc1c(Cl)cc(C[C@H]2NC(=O)/C=C/C[C@@H]([C@H](C)[C@H]3O[C@@H]3c3ccccc3)OC(=O)[C@H](CC(C)C)OC(=O)[C@H](C)CNC2=O)cc1Cl [Cryptophycin 31],KB IC50,[4]; Table 2,0.53 ng/mL
same,LoVo IC50,[1]; Table 2,0.062 ng/mL
same,SKOV3 IC50,[2],1.9 ng/mL
COc1ccc(CC2NC(=O)CCCC(C(C)C3OC3c3ccccc3)OC(=O)C(CC(C)C)OC(=O)C(C)CNC2=O)cc1Cl (stereo not shown) [Cryptophycin 35],% Body Wt. Loss at Nadir,[5]; [16],-2%
same,Cures,[5]; [16],0/5
same,Log Kill,[5]; [16],1.3
same,T/C,[5]; [16],11%
same,in vivo activity (in words),[7],Good in vivo activity
COc1ccc(C[C@H]2NC(=O)CCC[C@@H]([C@H](C)[C@H]3O[C@@H]3c3ccccc3)OC(=O)[C@H](CC(C)C)OC(=O)[C@H](C)CNC2=O)cc1Cl [Cryptophycin 35],KB IC50,[4]; Table 2,0.055 ng/mL
same,SKOV3 IC50,[2],0.092 ng/mL
COc1ccc(C[C@H]2NC(=O)/C=C/C[C@@H](C[C@H]3O[C@@H]3c3ccccc3)OC(=O)[C@H](CC(C)C)OC(=O)[C@H](C)CNC2=O)cc1Cl [Cryptophycin 40],KB IC50,[4]; Table 2,9.0 ng/mL
same,LoVo IC50,[1]; Table 2,1.0 ng/mL
CC[C@H](C)[C@@H]1OC(=O)[C@H](C)CNC(=O)[C@@H](Cc2ccc(OC)c(Cl)c2)NC(=O)/C=C/C[C@@H]([C@H](C)[C@H]2O[C@@H]2c2ccccc2)OC1=O [Cryptophycin 54],KB IC50,[4]; Table 2,0.80 ng/mL
same,LoVo IC50,[1]; Table 2,2.2 ng/mL
same,SKOV3 IC50,[2],2.2 ng/mL
